pIC50: −log10 of the molar value.
Test system: 931267-113-T-J1-PDC KRAS spheroid with HUVEC/MSC, viability
Assay: Anticancer human tumor 931267-113-T-J1-PDC patient-derived colon adenocarcinoma cell line growth inhibition [KRAS2]
Details: for pIC50: curve of first compound; for viability, T/C: stronger effect = lower value
Source text: Multicellular complex tumor spheroid response to RAS pathway inhibitors in combination with a targeted agents in patient-derived cell lines with oncogenic KRAS variants from multiple cancer types
A high-throughput screen of multi-cell type tumor spheroids was designed to identify active combinations of targeted small molecules and KRAS pathway inhibitors. Complex spheroids include a stromal component modeled by human endothelial cells (HUVEC) and fibroblasts modeled by human mesenchymal stem cells (MSCs). The concentration ranges selected for each drug and investigational agent were based upon clinically achievable concentrations if the clinical Cmax of the agent was known.
Compounds. The drugs and investigational agents: BI-3406 (NSC825286), BAY-293 (NSC824723), batoprotafib (TNO155; NSC825523), sotorasib (AMG 510; NSC818433), MRTX1257 (NSC819558), elimusertib (BAY 1895344; NSC800525), molibresib (GSK525762; NSC774829), temuterkib (LY3214996; NSC803410), venetoclax (NSC766270), alisertib (NSC759677), olaparib (NSC753686), talazoparib (NSC767125), erdafitinib (NSC781556), ipatasertib (NSC767898), cabozantinib (NSC761068), nintedanib (NSC756659), abemaciclib (NSC768073), docetaxel (NSC628503), trametinib (NSC758246), and sapanisertib (NSC764658) were obtained from the National Cancer Institute (NCI) Developmental Therapeutics Program Chemical Repository. The FDA-approved anticancer drug set is available from the Developmental Therapeutics Program. […] The stock solutions were prepared in dimethyl sulfoxide (DMSO, Sigma-Aldrich, St. Louis, MO, cat. D2650) at 800-fold the tested concentration and stored at -70 degrees C prior to their use. All drugs and investigational agents were tested over a range starting from a high concentration at or near the clinical Cmax and decreasing in half-log increments. If the clinical Cmax for an agent had not been determined, the highest concentration tested was 10 microM.
Cell Culture. All cells were maintained in an incubator at 37 degrees C and 5% CO2 with 95% humidity. The PDC lines were cultured according to standard operating procedures established by the NCI PDMR (https://pdmr.cancer.gov/sops/default.htm). Briefly, all PDCs were thawed and cultured in Matrigel-coated flasks prepared with a working solution of 1X Ham's F-12 nutrient mix, without supplementation (Invitrogen, Waltham, MA, cat. 11765054), 100 U/mL penicillin-streptomycin (Invitrogen, cat. 15140122), and 2.5% Matrigel (Corning Inc., Corning, NY, cat. 354248) for the first three passages. All PDCs were cultured in complete DMEM/F-12 media containing advanced DMEM/F-12 (Invitrogen, cat. 12634028), 4.9% defined fetal bovine serum, heat inactivated (HyClone Laboratories Inc., Logan, UT, cat. SH30070.03HI), 389 ng/mL hydrocortisone (Sigma-Aldrich, cat. H4001), 9.7 ng/mL human EGF recombinant protein (Invitrogen, cat. PHG0313), 23.4 microg/mL adenine (Sigma-Aldrich, cat. A2786), 97.3 U/mL penicillin-streptomycin (Invitrogen, cat. 15140122), 1.9 mM L-glutamine (Invitrogen, cat. 25030081), and 9.7 microM Y-27632 dihydrochloride (Tocris Bioscience, Bristol, United Kingdom, cat. 1254). The PDCs were cultured in complete DMEM/F12 media without 9.7 microM Y-27632 dihydrochloride for at least two passages prior to the screen. The established cell line HOP-62 was cultured in RPMI 1640 medium, HEPES (Invitrogen, cat. 22400105) with 10% defined fetal bovine serum (HyClone Laboratories Inc., cat. SH30070.03) and 2 mM L-glutamine (Invitrogen, cat. 25030081). The pooled donor HUVEC were cultured in endothelial cell growth medium 2 (PromoCell, Heidelberg, Germany, cat. C-22011) and the hMSC were cultured in mesenchymal stem cell growth medium 2 (PromoCell, cat. C-28009). For all experiments, HUVEC and hMSC were used at passages </=5, while the malignant cell lines were used at passages </=15. […]

[1] = second compound 0.0316 µM, first compound 0.0316 µM
[2] = second compound 0.0316 µM, first compound 0.1 µM
[3] = second compound 0.0316 µM, first compound 0.316 µM
[4] = second compound 0.0316 µM, first compound 1 µM
[5] = second compound 0.0316 µM, first compound 3.16 µM
[6] = second compound 0.0316 µM, first compound 10 µM
[7] = second compound 0.1 µM, first compound 0.0316 µM
[8] = second compound 0.1 µM, first compound 0.1 µM
[9] = second compound 0.1 µM, first compound 0.316 µM
[10] = second compound 0.1 µM, first compound 1 µM
[11] = second compound 0.1 µM, first compound 3.16 µM
[12] = second compound 0.1 µM, first compound 10 µM
[13] = second compound 0.316 µM, first compound 0.0316 µM
[14] = second compound 0.316 µM, first compound 0.1 µM
[15] = second compound 0.316 µM, first compound 0.316 µM
[16] = second compound 0.316 µM, first compound 1 µM
[17] = second compound 0.316 µM, first compound 3.16 µM
[18] = second compound 0.316 µM, first compound 10 µM
[19] = second compound 1 µM, first compound 0.0316 µM
[20] = second compound 1 µM, first compound 0.1 µM
[21] = second compound 1 µM, first compound 0.316 µM
[22] = second compound 1 µM, first compound 1 µM
[23] = second compound 1 µM, first compound 3.16 µM
[24] = second compound 1 µM, first compound 10 µM
[25] = second compound 3.16 µM, first compound 0.0316 µM
[26] = second compound 3.16 µM, first compound 0.1 µM
[27] = second compound 3.16 µM, first compound 0.316 µM
[28] = second compound 3.16 µM, first compound 1 µM
[29] = second compound 3.16 µM, first compound 3.16 µM
[30] = second compound 3.16 µM, first compound 10 µM
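Also: compound exposure lasted 7 days before the readout.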
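For viability, T/C in this document: 100% = DMSO vehicle control viability.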

SMILES	pIC50 (second compound 0.1 µM)	pIC50 (second compound 0.316 µM)	pIC50 (second compound 1 µM)	pIC50 (second compound 3.16 µM)	viability, T/C [7] [%]	viability, T/C [8] [%]	viability, T/C [9] [%]	viability, T/C [10] [%]	viability, T/C [13] [%]	viability, T/C [14] [%]	viability, T/C [15] [%]	viability, T/C [16] [%]	viability, T/C [19] [%]	viability, T/C [20] [%]	viability, T/C [21] [%]	viability, T/C [22] [%]	viability, T/C [25] [%]	viability, T/C [26] [%]	viability, T/C [27] [%]	viability, T/C [28] [%]	further results
CC(C)NCC(C(=O)N1CCN(c2ncnc3c2C(C)CC3O)CC1)c1ccc(Cl)cc1 (stereo not given) + C=CC(=O)N1CCN(c2nc(OCC3CCCN3C)nc3c2CCN(c2cccc4cccc(C)c24)C3)CC1CC#N	5.20	5.29	5.74	> 7.50	96.8	86.4	83.1	101	100	89.6	95.4	64.7	79.4	83.1	64.5	60.1	1.12	0.47	0.29	0.37	pIC50 (second compound 0.0316 µM): < 5.00; viability, T/C [1]: 111%; viability, T/C [2]: 86%; viability, T/C [3]: 72.4%; viability, T/C [4]: 79.8%; viability, T/C [5]: 64.3%; viability, T/C [6]: 50%; viability, T/C [11]: 62.1%; viability, T/C [12]: 41.8%; viability, T/C [17]: 73%; viability, T/C [18]: 30.4%; viability, T/C [23]: 42.2%; viability, T/C [24]: 18.4%; viability, T/C [29]: 0.61%; viability, T/C [30]: 0.46%
CC1OCC2(CCN(c3cnc(Sc4ccnc(N)c4Cl)c(N)n3)CC2)C1N (stereo not given) + C=CC(=O)N1CCN(c2nc(OCC3CCCN3C)nc3c2CCN(c2cccc4cccc(C)c24)C3)CC1CC#N	< 5.00	< 5.00	< 5.00	> 7.50	98.3	75.6	79.1	75.2	93	87.8	69.1	70.2	78	65.9	55.2	68.7	0.31	0.29	0.36	0.26	pIC50 (second compound 0.0316 µM): < 5.00; viability, T/C [1]: 111%; viability, T/C [2]: 81.9%; viability, T/C [3]: 77.3%; viability, T/C [4]: 58.2%; viability, T/C [5]: 80%; viability, T/C [6]: 83%; viability, T/C [11]: 71.1%; viability, T/C [12]: 99.3%; viability, T/C [17]: 75.6%; viability, T/C [18]: 69.6%; viability, T/C [23]: 68.8%; viability, T/C [24]: 61.2%; viability, T/C [29]: 0.28%; viability, T/C [30]: 0.26%
CCN1CCN(Cc2ccc(Nc3ncc(F)c(-c4cc(F)c5nc(C)n(C(C)C)c5c4)n3)nc2)CC1 + C=CC(=O)N1CCN(c2nc(=O)n(-c3c(C)ccnc3C(C)C)c3nc(-c4c(O)cccc4F)c(F)cc23)C(C)C1	< 6.00	< 6.00	< 6.00	< 6.00	81.2	87.4	71.8	50.8	82.5	65.8	60.8	50.8	78.4	80.9	60.7	51	83.5	73.6	74.3	47.5	pIC50 (second compound 10 µM): 6.44; viability, T/C (second compound 0.1 µM, first compound 0.00316 µM): 103%; viability, T/C (second compound 0.1 µM, first compound 0.01 µM): 73.6%; viability, T/C (second compound 0.316 µM, first compound 0.00316 µM): 95.2%; viability, T/C (second compound 0.316 µM, first compound 0.01 µM): 88.3%; viability, T/C (second compound 1 µM, first compound 0.00316 µM): 105%; viability, T/C (second compound 1 µM, first compound 0.01 µM): 83.1%; viability, T/C (second compound 3.16 µM, first compound 0.00316 µM): 94%; viability, T/C (second compound 3.16 µM, first compound 0.01 µM): 90.3%; viability, T/C (second compound 10 µM, first compound 0.00316 µM): 89.1%; viability, T/C (second compound 10 µM, first compound 0.01 µM): 99.9%; viability, T/C (second compound 10 µM, first compound 0.0316 µM): 90.2%; viability, T/C (second compound 10 µM, first compound 0.1 µM): 72.5%; viability, T/C (second compound 10 µM, first compound 0.316 µM): 60.1%; viability, T/C (second compound 10 µM, first compound 1 µM): 4.51%
CC(C)NCC(C(=O)N1CCN(c2ncnc3c2C(C)CC3O)CC1)c1ccc(Cl)cc1 (stereo not given)	–	–	–	–	–	–	–	–	–	–	–	–	–	–	–	–	–	–	–	–	viability, T/C (compound 0.0316 µM): 91.2% [middle of 5 runs]; viability, T/C (compound 0.316 µM): 89.6% [middle of 5 runs]; viability, T/C (compound 1 µM): 78.3% [middle of 5 runs]; viability, T/C (compound 3.16 µM): 65.2% [middle of 5 runs]; viability, T/C (compound 10 µM): 42.5% [middle of 5 runs]

— PubChem BioAssay AID1963863 (Molecular Pharmacology Branch, DTP, NCI, 2024)
